With `Cl.NC1=N[C@H](Cc2cccs2)CS1`, the melting point was in the range of 125 to 127 °C.

For orientation: melting point means the temperature of the solid-liquid transition.

Values taken from US6699895B2, “2-aminothiazoline derivatives and process for preparing the same” (Aventis Pharma S.A., priority 2000, dated 2004).
